In US20040185108A1, “Method of preparing gas-filled polymer matrix microparticles useful for delivering drug” (priority 2003, published 2004):

Experiment: Release of oxybutynin using ultrasound from oxybutynin-containing polymer matrix microparticles (reverse phase HPLC)
Type: physicochemical
Description: Four vials containing product manufactured in accordance with Example 5 were each reconstituted with 10 mL of 20 mM KPO4 at pH 3.5 (wash solution). The oxybutynin containing microparticles from two of the vials were retrieved by centrifugation at 1500 rpm for 15 minutes. The microparticles were resuspended in 10 mL of wash solution and vortexed. The washing procedure was repeated two more times. The final washed matrix microparticles were resuspended in a total volume of 10 mL of wash solution. The remaining two vials were not washed. One vial from each set was designated the control sample and the other vial was the experimental sample.
The controls remained undisturbed for 80 minutes to allow the matrix microparticles to float. The subnatant was removed and centrifuged at 14,000 rpm for 2 minutes. The experimental samples were each sonicated for 1 minute on level 5 using a Virtis Virsonic hand-held sonicator. […] The suspensions were centrifuged at 14,000 rpm for 2 minutes. All four of the resulting supernatants were retrieved and analyzed by reverse phase HPLC. […] The amount of oxybutynin in each sample was calculated from the area using the standard curve.

## CCN(CC)CC#CCOC(=O)C(O)(c1ccccc1)C1CCCCC1 (centres unmarked) [oxybutynin]
Microparticles of Example 5
  burst release of oxybutynin, of the recovered amount: 34%
  oxybutynin released due to sonication, of the recovered amount: 66%
Microparticles of Example 5, unwashed, not sonicated, undisturbed 80 minutes
  amount of oxybutynin in supernatant, unwashed control sample: 0.65 mg oxybutynin/vial
Microparticles of Example 5, unwashed, sonicated 1 minute level 5
  amount of oxybutynin in supernatant, unwashed experimental sample: 1.93 mg/vial
Microparticles of Example 5, washed control, burst release removed
  leakage of drug after reconstitution: little to no leakage
Microparticles of Example 5, washed, not sonicated, undisturbed 80 minutes, 20 mM KPO4 pH 3.5
  amount of oxybutynin in supernatant, washed control sample: 0.03 mg oxybutynin/vial
Microparticles of Example 5, washed, sonicated 1 minute level 5, 20 mM KPO4 pH 3.5
  amount of oxybutynin in supernatant, washed experimental sample: 1.05 mg/vial
Microparticles of Example 5, theoretical loading 2.4 mg/vial
  total oxybutynin recovered after sonication compared to theoretical loading: 80%
